Source: patent US20230174584A1, “Antibiotic Compounds” (priority 2019, published 2023)
Values after ≈ are worked out from the molar mass of the structure shown. Read-outs that look alike come from different tables or passages of the source.

How the values were obtained:
[1] = test system: panel of 31 vancomycin-resistant E. faecium strains; assay: MIC assay, MIC50/MIC90 over panel; assay type: cell-based, Enterococcus faecium
Description: The antibacterial activity of the compounds was tested against a panel of bacteria, including Gram-positive bacteria (S. aureus ATCC29213, S. aureus USA300, S. aureus LIM-2, NR-45881, S. aureus HIP13419, NR-46413, E. faecium E155, E. faecium E7314, E. faecium E980, E. faecalis E1246, E. faecalis E7406 and S. pneumonia 153). The antibacterial activity of the compounds was further tested against S. aureus NY-155, NR-46236, S. aureus HIP12864, NR-46074, S. aureus 880 (BR-VRSA), NR-49120, E. faecalis E1246, E. faecalis E7604, as well as some Gram-negative bacteria (Escherichia coli and Klebsiella pneumoniae). Minimum inhibitory concentrations (MICs) in μg/mL were performed according to the CLSI guidelines. From glycerol stocks, bacterial strains were cultured on blood agar plates and incubated at 37° C. for 18 h. A single colony was transferred to tryptic soy broth (TSB) with 0.002% polysorbate 80 (p80). For the Enterococcus, VISA and VRSA strains, the cultures were grown at 37° C. until the optical density of the suspension reached a level equivalent to the 0.5 McFarland standard. The bacterial suspensions were diluted in TSB with 0.002% p80 to reach a bacterial cell density of 10^6 CFU/mL. In case of the other (vancomycin-sensitive) S. aureus strains, the direct colony suspension method was used. For these strains, after transfer of the colonies to TSB with 0.002% p80, they were immediately diluted to 10^6 CFU/mL, instead of incubated prior to this dilution. In the case of S. pneumonia, direct colony suspension was used by immediately suspending multiple colonies from fresh blood agar plates in TSB+0.002% p80 to an OD600 of 0.5 and subsequent dilution to 10^6 CFU mL^−1 in TSB+0.002% p80+5% lysed horse blood. Antibiotic dilutions for this strains were also made in TSB+0.002% p80+5% lysed horse blood. Both agar and microplates containing S. pneumonia were incubated at 37° C. with 5% CO2 for 24 h with constant shaking (600 rpm). […] The cultures were grown to exponential phase (OD600=0.5) at 37° C. […] In polypropylene 96-well microtiter plates, test compounds were added in biological triplicates and serial diluted 2-fold by transfer and mixing from one well to the next to achieve a final volume of 50 μL per well. An equal volume of bacterial suspension (10^6 CFU mL^−1) was added to the wells. The plates were sealed with breathable membranes and incubated at 37° C. for 24 h with constant shaking (600 rpm). In polypropylene microtiter plates, 100 μL of the test compounds was added to the first row in biological triplicates, and 50 μL of media was added to the other wells. The compounds were subjected to serial dilution by transfer and mixing of 50 μL from one well to the next. Subsequently, 50 μL of bacterial suspension (10^6 CFU/mL) was added to the wells. The plates were sealed with breathable membranes and incubated at 37° C. for 24 h with constant shaking (600 rpm). Positive growth control consisted of wells with bacterial suspension and without antibiotic. Negative growth control consisted of solely media without bacterial suspension or antibiotic. The MICs were determined from the median of a minimum of triplicates.

E. faecium E7312 = assay: MIC assay; assay type: cell-based, Enterococcus faecium
E. faecium E2359 = assay: MIC assay; assay type: cell-based, Enterococcus faecium
[2] = test system: S. aureus HIP13419, NR-46413; assay: microbe, parasite or virus in culture; assay type: cell-based, Staphylococcus aureus
How it was run: (§1)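 CLSI broth microdilution in TSB + 0.002% polysorbate 80, 10^6 CFU/mL inoculum, 2-fold compound dilutions, 24 h at 37° C with shaking (600 rpm). VISA, VRSA and Enterococcus inocula grown to 0.5 McFarland before dilution; vancomycin-sensitive S. aureus by direct colony suspension. MIC (μg/mL) as median of ≥ triplicates.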

S. aureus USA300 = assay: microbe, parasite or virus in culture; assay type: cell-based, Staphylococcus aureus
How it was run: as §1

E. faecium E0338 = assay: MIC assay; assay type: cell-based, Enterococcus faecium
E. faecium E7413 = assay: MIC assay; assay type: cell-based, Enterococcus faecium
How it was run: as §1

E. faecium E8237 = assay: MIC assay; assay type: cell-based, Enterococcus faecium
How it was run: as §1

E. faecalis E1246 = assay: MIC assay; assay type: cell-based, Enterococcus faecalis
How it was run: as §1

E. faecium E1441 = assay: MIC assay; assay type: cell-based, Enterococcus faecium
Escherichia coli W3110 = assay: MIC assay; assay type: cell-based
How it was run: as §1

[3] = test system: Escherichia coli ATCC 35218; assay: MIC assay; assay type: cell-based
How it was run: as §1

[4] = test system: Klebsiella pneumoniae ATCC 13883; assay: MIC assay; assay type: cell-based
How it was run: as §1

S. pneumoniae 153 = assay: MIC assay; assay type: cell-based
How it was run: as §1

[5] = test system: Klebsiella pneumoniae JS265; assay: MIC assay; assay type: cell-based
How it was run: as §1

[6] = test system: Klebsiella pneumoniae ATCC 27736; assay: MIC assay; assay type: cell-based
How it was run: as §1

[7] = test system: Escherichia coli ATCC 25922; assay: MIC assay; assay type: cell-based
How it was run: as §1

[8] = panel of 31 vancomycin-resistant E. faecium strains
[9] = S. aureus HIP13419, NR-46413 VRSA
[10] = E. faecalis E1246 VRE (VanA), Table 7
[11] = E. faecalis E1246 VRE (vanA), Table 9
[12] = S. pneumoniae 153, TSB+0.002% p80+5% lysed horse blood
[13] = Staphylococcus aureus, MRSA / USA300

Row | SMILES | MIC50 [1, 8] [µg/mL] | MIC90 [1, 8] [µg/mL] | MIC (E. faecium E7312; E. faecium E7312, VanA) [µg/mL] | MIC (E. faecium E2359; E. faecium E2359, VanB) [µg/mL] | MIC [2, 9] [µg/mL] | MIC (S. aureus USA300; MRSA USA300, TSB + 0.002% p80) [µg/mL] | MIC (S. aureus USA300; S. aureus USA300 MRSA) [µg/mL] | MIC (E. faecium E0338; E. faecium E0338, VanA) [µg/mL] | MIC (E. faecium E7413; E. faecium E7413, VanA) [µg/mL] | MIC (E. faecium E8237; E. faecium E8237, VanA) [µg/mL] | MIC (E. faecalis E1246; [10]) [µg/mL] | MIC (E. faecalis E1246; [11]) [µg/mL] | MIC (E. faecium E1441; E. faecium E1441, VanA) [µg/mL] | MIC (Escherichia coli W3110) [µg/mL] | MIC [3] [µg/mL] | MIC [4] [µg/mL] | MIC (S. pneumoniae 153; [12]) [µg/mL] | MIC [5] [µg/mL] | MIC [6] [µg/mL] | MIC [7] [µg/mL] | also measured
1 | CCCCCCN(CCCCCC)C(N)=Nc1ccc(CN[C@@]2(C)C[C@H](O[C@H]3[C@H](Oc4c5cc6cc4Oc4ccc(cc4Cl)[C@@H](O)[C@@H](NC(=O)[C@@H](CC(C)C)NC)C(=O)N[C@@H](CC(N)=O)C(=O)N[C@H]6C(=O)N[C@H]4C(=O)N[C@H](C(=O)N[C@H](C(=O)O)c6cc(O)cc(O)c6-c6cc4ccc6O)[C@H](O)c4ccc(c(Cl)c4)O5)O[C@H](CO)[C@@H](O)[C@@H]3O)O[C@@H](C)[C@H]2O)cc1 [Compound 12] | 0.25 (≈ 0.142 µM) | 2 (≈ 1.13 µM) | 0.125 (≈ 0.0708 µM) | ≤0.008 | 0.25 (≈ 0.142 µM) | 0.063 | 0.0625 (≈ 0.0354 µM) | 2 (≈ 1.13 µM) | 2 (≈ 1.13 µM) | 2 (≈ 1.13 µM) | 8 (≈ 4.53 µM) | 8 (≈ 4.53 µM) | 2 (≈ 1.13 µM) | >128 | >128 | >128 | ≤0.008 | >128 | >128 | >128 | 
2 | CN[C@H](CC(C)C)C(=O)N[C@H]1C(=O)N[C@@H](CC(N)=O)C(=O)N[C@H]2C(=O)N[C@H]3C(=O)N[C@H](C(=O)N[C@H](C(=O)O)c4cc(O)cc(O)c4-c4cc3ccc4O)[C@H](O)c3ccc(c(Cl)c3)Oc3cc2cc(c3O[C@@H]2O[C@H](CO)[C@@H](O)[C@H](O)[C@H]2O[C@H]2C[C@](C)(NCc3ccc(N=C(N)NC/C=C(\C)CCC=C(C)C)cc3)[C@H](O)[C@H](C)O2)Oc2ccc(cc2Cl)[C@H]1O [Compound 14] | 1 (≈ 0.577 µM) | 8 (≈ 4.62 µM) | 0.25 (≈ 0.144 µM) | ≤0.008 | 0.063 (≈ 0.0364 µM) | 0.031 | 0.03125 (≈ 0.018 µM) | 4 (≈ 2.31 µM) | 8 (≈ 4.62 µM) | 4 (≈ 2.31 µM) | 8 (≈ 4.62 µM) | 8 (≈ 4.62 µM) | 4 (≈ 2.31 µM) | >128 | >128 | >128 | ≤0.008 | >128 | >128 | >128 | 
3 | CCCCCCCCCCNCCN[C@@]1(C)C[C@H](O[C@H]2[C@H](Oc3c4cc5cc3Oc3ccc(cc3Cl)[C@@H](O)[C@@H](NC(=O)[C@@H](CC(C)C)NC)C(=O)N[C@@H](CC(N)=O)C(=O)N[C@H]5C(=O)N[C@H]3C(=O)N[C@H](C(=O)N[C@H](C(=O)O)c5cc(O)c(CNCP(=O)(O)O)c(O)c5-c5cc3ccc5O)[C@H](O)c3ccc(c(Cl)c3)O4)O[C@H](CO)[C@@H](O)[C@@H]2O)O[C@@H](C)[C@H]1O [Telavancin, reference compound] |  |  |  |  |  |  |  |  |  |  |  | 4 (≈ 2.28 µM) |  |  | > 128 |  |  |  |  |  | MIC50 ([1]; Enterococcus faecium): 4 µg/mL (≈ 2.28 µM); MIC90 ([1]; Enterococcus faecium): 8 µg/mL (≈ 4.56 µM); MIC (E. faecium E7312; Enterococcus faecium, E7312): 2 µg/mL (≈ 1.14 µM); MIC (E. faecium E2359; Enterococcus faecium, E2359): ≤ 0.008 µg/mL; MIC ([2]; Staphylococcus aureus, VRSA): 4 µg/mL (≈ 2.28 µM); MIC (S. aureus USA300; [13]): 0.125 µg/mL (≈ 0.0712 µM); MIC (E. faecium E0338; Enterococcus faecium, E0338): 8 µg/mL (≈ 4.56 µM); MIC (E. faecium E7413; Enterococcus faecium, E7413): 8 µg/mL (≈ 4.56 µM); MIC (E. faecium E8237; Enterococcus faecium, E8237): 16 µg/mL (≈ 9.11 µM); MIC (E. faecalis E1246; Enterococcus faecalis, VRE): 4 µg/mL (≈ 2.28 µM); MIC (E. faecium E1441; Enterococcus faecium, E1441): 8 µg/mL (≈ 4.56 µM); MIC (Escherichia coli W3110; read-out: MIC): > 128 µg/mL; MIC ([4]; ATCC13883, read-out: MIC): > 128 µg/mL; MIC (S. pneumoniae 153; Streptococcus pneumoniae, 153): ≤ 0.008 µg/mL; MIC ([5]; read-out: MIC): > 128 µg/mL; MIC ([6]; ATCC27736, read-out: MIC): > 128 µg/mL; MIC ([7]; ATCC25922, read-out: MIC): > 128 µg/mL
4 | CN[C@H](CC(C)C)C(=O)N[C@H]1C(=O)N[C@@H](CC(N)=O)C(=O)N[C@H]2C(=O)N[C@H]3C(=O)N[C@H](C(=O)N[C@H](C(=O)O)c4cc(O)cc(O)c4-c4cc3ccc4O)[C@H](O)c3ccc(c(Cl)c3)Oc3cc2cc(c3O[C@@H]2O[C@H](CO)[C@@H](O)[C@H](O)[C@H]2O[C@H]2C[C@](C)(N)[C@H](O)[C@H](C)O2)Oc2ccc(cc2Cl)[C@H]1O [Vancomycin, reference compound] |  |  |  |  |  |  |  |  |  |  |  | >128 |  |  | > 128 |  |  |  |  |  | MIC50 ([1]; Enterococcus faecium): 128 µg/mL (≈ 88.3 µM); MIC90 ([1]; Enterococcus faecium): 128 µg/mL (≈ 88.3 µM); MIC (E. faecium E7312; Enterococcus faecium, E7312): > 128 µg/mL; MIC (E. faecium E2359; Enterococcus faecium, E2359): 128 µg/mL (≈ 88.3 µM); MIC ([2]; Staphylococcus aureus, VRSA): > 128 µg/mL; MIC (S. aureus USA300; [13]): 1 µg/mL (≈ 0.69 µM); MIC (E. faecium E0338; Enterococcus faecium, E0338): > 128 µg/mL; MIC (E. faecium E7413; Enterococcus faecium, E7413): > 128 µg/mL; MIC (E. faecium E8237; Enterococcus faecium, E8237): > 128 µg/mL; MIC (E. faecalis E1246; Enterococcus faecalis, VRE): > 128 µg/mL; MIC (E. faecium E1441; Enterococcus faecium, E1441): > 128 µg/mL; MIC (Escherichia coli W3110; read-out: MIC): > 128 µg/mL; MIC ([4]; ATCC13883, read-out: MIC): > 128 µg/mL; MIC (S. pneumoniae 153; Streptococcus pneumoniae, 153): 0.5 µg/mL (≈ 0.345 µM); MIC ([5]; read-out: MIC): > 128 µg/mL; MIC ([6]; ATCC27736, read-out: MIC): > 128 µg/mL; MIC ([7]; ATCC25922, read-out: MIC): > 128 µg/mL
